# According to ChEMBL document CHEMBL4350974, “Synthesis and biological evaluation of methylpyrimidine-fused tricyclic diterpene analogs as novel oral anti-late-onset hypogonadism agents” (Eur J Med Chem, 2019):
# Calls of active or inactive are those of the source. The calls are words filed in the database; no cut-off is given here.
# Experiments:
# [1] = system: Rattus norvegicus; experiment: Anti late-onset hypogonadism activity in cyclophosphamide-induced Sprague-Dawley rat model of partial androgen deficiency assessed as intratesticular testosterone level at 100 mg/kg, po qd administered for 4 weeks by ELISA (reference value: 137.99 +/- 19.27 nmol/L); type: functional
# [2] = system: Rattus norvegicus; experiment: Anti late-onset hypogonadism activity in cyclophosphamide-induced Sprague-Dawley rat model of partial androgen deficiency assessed as intratesticular testosterone level at 50 mg/kg, po qd administered for 4 weeks by ELISA (reference value: 137.99 +/- 19.27 nmol/L); type: functional
# [3] = system: Rattus norvegicus; experiment: Anti late-onset hypogonadism activity in cyclophosphamide-induced Sprague-Dawley rat model of partial androgen deficiency assessed as increase in LC3 expression at 50 to 100 mg/kg by immunohistochemical analysis; type: functional, organism-based
# [4] = Half-life in Sprague-Dawley rat plasma at 50 mg/kg, po up to 12 hrs by LC/MS analysis; type: ADME, organism-based
# [5] = system: Rattus norvegicus; experiment: Anti late-onset hypogonadism activity in cyclophosphamide-induced Sprague-Dawley rat model of partial androgen deficiency assessed as increase in StAR mRNA level at 50 to 100 mg/kg by RT-PCR analysis; type: functional, organism-based
# [6] = system: Rattus norvegicus; experiment: Effect on sperm production in cyclophosphamide - induced Sprague-Dawley rat model of partial androgen deficiency assessed as increase in SYCP3 protein expression at 50 to 100 mg/kg by immunohistochemical analysis; type: functional, organism-based
# [7] = system: Rattus norvegicus; experiment: Anti late-onset hypogonadism activity in cyclophosphamide-induced Sprague-Dawley rat model of partial androgen deficiency assessed as increase in free testosterone level at 50 to 100 mg/kg, po qd administered for 4 weeks and measured every 2 weeks by ELISA; type: functional, organism-based
# [8] = system: Rattus norvegicus; experiment: Anti late-onset hypogonadism activity in cyclophosphamide-induced Sprague-Dawley rat model of partial androgen deficiency assessed as inhibition of Leydig cells apoptosis at 50 to 100 mg/kg, po qd administered for 4 weeks by DAPI staining based TUNEL assay; type: functional, organism-based
# [9] = species: Rattus norvegicus; experiment: Anti late-onset hypogonadism activity in cyclophosphamide-induced Sprague-Dawley rat model of partial androgen deficiency assessed as prevention of testicular atrophy; type: functional, organism-based
# [10] = system: Rattus norvegicus; experiment: Anti late-onset hypogonadism activity in cyclophosphamide-induced Sprague-Dawley rat model of partial androgen deficiency assessed as weight of testis at 100 mg/kg, po qd administered for 4 weeks (reference value: 1.47 +/- 0.13 g); type: functional
# [11] = system: TM3; experiment: Induction of autophagy in mouse TM3 cells assessed as increase in LC3-II/LC3-I ratio at 10 to 100 uM after 24 hrs by Western blot analysis; type: functional, cell-based
# [12] = system: TM3; experiment: Induction of testosterone production in mouse TM3 cells assessed as increase in testosterone level at 20 uM measured after 24 hrs by ELISA relative to control; type: functional
# [13] = Cytotoxicity against mouse TM3 cells assessed as reduction in cell viability measured after 24 hrs by sulforhodamine B assay; type: cell-based
# [14] = Cytotoxicity against human NCM460 cells assessed as reduction in cell viability measured after 24 hrs by sulforhodamine B assay; type: cell-based
# [15] = Cytotoxicity against human L02 cells assessed as reduction in cell viability measured after 24 hrs by sulforhodamine B assay; type: cell-based
# [16] = system: TM3; experiment: Induction of testosterone production in mouse TM3 cells assessed as increase in StAR mRNA expression level after 24 hrs by qRT-PCR analysis; type: functional, cell-based
# [17] = system: TM3; experiment: Induction of testosterone production in mouse TM3 cells assessed as increase in 3beta-HSD mRNA expression level after 24 hrs by qRT-PCR analysis; type: functional, cell-based
# [18] = system: TM3; experiment: Induction of autophagy in mouse TM3 cells assessed as increase in LC3-II protein level at 10 to 100 uM by Western blot analysis; type: functional, cell-based
# [19] = Toxicity in cyclophosphamide - induced Sprague-Dawley rat model of partial androgen deficiency assessed as effect on heart at 50 to 100 mg/kg by HE staining based histopathological analysis; type: organism-based; conditions: in vivo
# [20] = Toxicity in cyclophosphamide - induced Sprague-Dawley rat model of partial androgen deficiency assessed as effect on spleen at 50 to 100 mg/kg by HE staining based histopathological analysis; type: organism-based; conditions: in vivo
# [21] = Toxicity in cyclophosphamide - induced Sprague-Dawley rat model of partial androgen deficiency assessed as effect on lung at 50 to 100 mg/kg by HE staining based histopathological analysis; type: organism-based; conditions: in vivo
# [22] = Toxicity in cyclophosphamide - induced Sprague-Dawley rat model of partial androgen deficiency assessed as effect on kidney at 50 to 100 mg/kg by HE staining based histopathological analysis; type: organism-based; conditions: in vivo
# [23] = Toxicity in cyclophosphamide - induced Sprague-Dawley rat model of partial androgen deficiency assessed as swelling of seminiferous tubules at 50 to 100 mg/kg by HE staining based histopathological analysis; type: organism-based; conditions: in vivo
# [24] = Toxicity in cyclophosphamide - induced Sprague-Dawley rat model of partial androgen deficiency assessed as sperm viability at 50 mg/kg by semen analysis (reference value: 95.1 +/- 3.2 %); type: organism-based; conditions: in vivo
# [25] = Toxicity in cyclophosphamide - induced Sprague-Dawley rat model of partial androgen deficiency assessed as sperm viability at 100 mg/kg by semen analysis (reference value: 95.1 +/- 3.2 %); type: organism-based; conditions: in vivo
# [26] = Toxicity in cyclophosphamide - induced Sprague-Dawley rat model of partial androgen deficiency assessed as sperm motility at 50 mg/kg by semen analysis (reference value: 88.3 +/- 7.3 %); type: organism-based; conditions: in vivo
# [27] = system: Rattus norvegicus; experiment: Anti late-onset hypogonadism activity in cyclophosphamide-induced Sprague-Dawley rat model of partial androgen deficiency assessed as increase in 3 beta- HSD mRNA level at 100 mg/kg by RT-PCR analysis; type: functional, organism-based
# [28] = species: Rattus norvegicus; experiment: Anti late-onset hypogonadism activity in cyclophosphamide-induced Sprague-Dawley rat model of partial androgen deficiency assessed as induction of autophagy in Leydig cells immunohistochemical analysis; type: functional, organism-based
# [29] = Cmax in Sprague-Dawley rat plasma at 50 mg/kg, po up to 12 hrs by LC/MS analysis; type: ADME, organism-based; parameters: dose 50 mg/kg, route oral
# [30] = Initial plasma concentration in Sprague-Dawley rat plasma at 5 mg/kg, iv by LC/MS analysis; type: ADME, organism-based
# [31] = AUC (0 to infinity) in Sprague-Dawley rat plasma at 50 mg/kg, po by LC/MS analysis; type: ADME, organism-based; parameters: dose 50 mg/kg, route oral, time infinity
# [32] = Volume of distribution in Sprague-Dawley rat plasma at 50 mg/kg, po up to 12 hrs by LC/MS analysis; type: ADME, organism-based; conditions: in vivo
# [33] = Clearance in Sprague-Dawley rat at 50 mg/kg, po up to 12 hrs by LC/MS analysis; type: ADME, organism-based; conditions: in vivo
# [34] = Clearance in Sprague-Dawley rat at 5 mg/kg, iv up to 5 hrs by LC/MS analysis; type: ADME, organism-based; conditions: in vivo
# [35] = Oral bioavailability in Sprague-Dawley rat at 50 mg/kg by LC/MS analysis; type: ADME, organism-based; conditions: in vivo
# [36] = system: TM3; experiment: Induction of testosterone production in mouse TM3 cells assessed as increase in StAR protein expression level after 24 hrs by Western blot analysis; type: functional, cell-based
# [37] = system: Rattus norvegicus; experiment: Anti late-onset hypogonadism activity in cyclophosphamide-induced Sprague-Dawley rat model of partial androgen deficiency assessed as increase in serum total testosterone level at 50 to 100 mg/kg, po qd administered for 4 weeks and measured every 2 weeks by ELISA; type: functional, organism-based
smiles,measurement,setting,value
CNC(=O)c1cc2c(cc1OC)[C@@]1(C)Cc3cnc(C)nc3C(C)(C)C1CC2 (mixture of isomers),Activity,[1],185.58 nmol/L
same,Activity,[2],180.24 nmol/L
same,Activity,[3],Active
same,half-life,[4],4.44 h
same,Activity,[5],Active
same,Activity,[6],Active
same,Activity,[7],Active
same,inhibition,[8],Active
same,Activity,[9],Active
same,Activity,[10],1.66 g
same,Activity,[11],Active
same,Activity,[12],174.6%
same,CC50 at 24 h,[13],> 200 µM
same,CC50 at 24 h,[14],> 200 µM
same,CC50 at 24 h,[15],> 200 µM
same,Activity,[16],Dose-dependent effect
same,Activity,[17],Dose-dependent effect
same,Activity,[18],Active
same,Activity,[19],Non-Toxic
same,Activity,[20],Non-Toxic
same,Activity,[21],Non-Toxic
same,Activity,[22],Non-Toxic
same,Activity,[23],Toxic
same,Activity,[24],96.5%
same,Activity,[25],98%
same,Activity,[26],92.6%
same,Activity,[27],Active
same,Activity,[28],Active
same,Cmax,[29],239 ng/mL
same,C0,[30],279 ng/mL
same,AUC(0-inf),[31],3140 ng·h/mL
same,Vd,[32],106.27 L/kg
same,CL/F,[33],270 mL/min/kg
same,clearance,[34],155 mL/min/kg
same,bioavailability,[35],57%
same,Activity,[36],Dose-dependent effect
same,Activity,[37],Active
